Test results taken from PMC3013143 (PLoS ONE, 2010).
No end group written: not given here.

Assays:
human serum = conditions: 37°C, up to 2 h
Stability in human serum = type: in vitro ADME; conditions: 37°C
Experimental: The stability of CaIX-P1 was investigated in human serum. The peptide was incubated at 37°C in human serum at a concentration of 10^−4 mol/L. At time points varying from 5 min to 2 h aliquots were taken, mixed with equal volume acetonitrile to precipitate serum proteins and centrifuged for 5 min at 13,000 rpm. The supernatant was analyzed with HPLC on a Chromolith Performance RP-18e 100×4.6 mm column (Merck) using a linear gradient of water and acetonitrile containing 0.1% trifluoroacetic acid. Samples of CaIX-P1 and its fragments in human serum were isolated and analyzed by MALDI-TOF mass spectrometry.

[1] = tested on: CAIX positive SKRC 52 cells; type: cell-based, human; conditions: 24 h
Experimental: For binding experiments 3×10^5 CAIX positive SKRC 52 cells were seeded into 6-well plates and cultivated in 3 mL of incubation medium at 37°C for 24 h. After cell blocking with RPMI 1640 (without FCS) containing 1% BSA, the medium was replaced with 1 mL of fresh medium (without FCS) containing 0.5–1.5×10^6 cpm of ^125I-labeled peptide and incubation was performed for time periods varying from 10 min to 6 h at 37°C. To determine specific versus nonspecific binding, the cells were incubated with the unlabeled CaIX-P1 peptide at concentrations varying from 10^−4 to 10^−10 mol/L. Octreotide was used as negative control competitor. After incubation the medium was removed and the cells were washed three times with 1 mL ice cold PBS in order to remove the unbound radiolabeled peptide. Subsequently, the cells were lysed with 0.5 mL NaOH 0.3 mol/L and the radioactivity was measured with a γ-counter. Bound radioactivity was calculated as percentage applied dose per 10^6 cells. Binding experiments were also performed on HCT 116 cells and on human umbilical vein endothelial cells (HUVEC) at various cell densities. CAIX negative CaKi-2 cells were used as negative control.

[2] = biological target: T1, recombinant extracellular domain of human CAIX (Homo sapiens, UniProt Q16790); assay: Binding of 125I-labeled CaIX-P1 on immobilized recombinant extracellular domain of CAIX; conditions: co-incubation of ^125I-CaIX-P1 with unlabeled CaIX-P1 at 10^−4 M, p<0.05, n = 3; read-out: Binding inhibition of the radioligand
T1 construct: Fc (Fc gamma, from pSEC-EGP-2-Fcγ vector) (C); made in house; host or cells: Flp-In-293 human embryonic kidney cells (secreted into medium)
Experimental: Binding of ^125I-labeled CaIX-P1 was performed on immobilized recombinant extracellular domain of human CAIX and of EGFR. For immobilization the target proteins CAIX and EGFR were incubated at a concentration of 50 nM in 24-well plates for 24 h. Thereafter, the plates were washed three times with 500 µl PBS pH 7.4. Incubation with ^125I-CaIX-P1 was performed in 500 µl PBS pH 7.4 for 30 min. After incubation the plates were washed three times with 500 µl ice cold PBS pH 7.4. The target proteins were degraded with 500 µl NaOH 0.3 mol/L and the radioactivity was counted with a γ-counter. Bound radioactivity was calculated as percentage applied dose. In order to evaluate the specificity of the radioligand binding, competition experiments with the unlabeled CaIX-P1 peptide at a concentration of 10^−4 M were carried out.

Row | Sequence | cleaved bond (human serum) | Main product of serum degradation (Stability in human serum; 10^−4 mol/L, appeared after 10 min, HPLC isolation and MALDI-TOF mass spectrometry) | half-life (Stability in human serum; peptide 10^−4 mol/L, aliquots 5 min to 2 h, acetonitrile precipitation, HPLC) [min] | IC50 [1] [µM] | inhibition at 100 µM [2] [%]
1 | YNTNHVPLSPKY | tyrosine1-N2, major, 10 min | – | – | – | –
2 | YNTNHVPLSPKY [CaIX-P1] | – | lacking the N-terminal tyrosine | ~25 | 1.75 ± 0.49 | 93
